Converted amounts (≈) assume the structure as drawn.
Tested on: C. albicans
Experiment: Minimum Inhibitory Concentration (MIC), CLSI M27-A2
Type: cell-based
Details: Candida albicans, 48 h, about 50% growth reduction, approximately 48 h at 35 °C, read-out: Candida MIC
Experimental: A. Minimum Inhibitory Concentration (MIC) Compounds were assessed for their ability to inhibit the growth of common strains of fungus, C. albicans using a standardized procedure (CLSI M27-A2). Stock solutions of the test compounds and standards were prepared in DMSO at 1,600 μg/mL (C. albicans). Eleven, serial, one-half dilutions of compounds were prepared in 96-well plates in RPMI+MOPS. The assay concentration ranges were 8-0.001 μg/mL (C. albicans). Cell suspensions of C. albicans were prepared and added to each well at concentrations of approximately 3.7×10^3 colony-forming-units per milliliter (cfu/mL). All testing was in duplicate. The inoculated plates were incubated for approximately 48 h at 35±1° C. At the completion of incubation the wells of each plate were evaluated visually for the presence of fungal growth. […] For QC purposes C. krusei isolate ATCC 6258 (4.0×10^3 cfu/mL) was included in the VOR assay.

MIC [µg/mL]	SMILES
≤ 0.016	N#Cc1ccc(-c2ccc(C(F)(F)C(O)(Cn3cnnn3)c3ccc(F)cc3F)nc2)cc1 (stereo not drawn) [Example 1, 4-(6-(2-(2,4-Difluorophenyl)-1,1-difluoro-2-hydroxy-3-(1H-tetrazol-1-yl)propyl)pyridin-3-yl)benzonitrile]

Same assay, conditions: Candida albicans, rating scale, read-out: Candida MIC Rating

MIC [µg/mL]	SMILES
< 0.5	N#Cc1ccc(-c2ccc(C(F)(F)C(O)(Cn3cnnn3)c3ccc(F)cc3F)nc2)cc1 (stereo not drawn) [Example 1, 4-(6-(2-(2,4-Difluorophenyl)-1,1-difluoro-2-hydroxy-3-(1H-tetrazol-1-yl)propyl)pyridin-3-yl)benzonitrile]
< 0.5	N#Cc1cccc(-c2ccc(C(F)(F)C(O)(Cn3cnnn3)c3ccc(F)cc3F)nc2)c1 (stereo not drawn) [Example 3, 3-(6-(2-(2,4-Difluorophenyl)-1,1-difluoro-2-hydroxy-3-(1H-tetrazol-1-yl)propyl)pyridin-3-yl)benzonitrile]
< 0.5	CC(C)Oc1ccc(-c2ccc(C(F)(F)C(O)(Cn3cnnn3)c3ccc(F)cc3F)nc2)cc1 (stereo not drawn) [Example 4, 2-(2,4-Difluorophenyl)-1,1-difluoro-1-(5-(4-isopropoxyphenyl)pyridin-2-yl)-3-(1H-tetrazol-1-yl)propan-2-ol]
< 0.5	OC(Cn1cnnn1)(c1ccc(F)cc1F)C(F)(F)c1ccc(-c2ccc(F)cc2)cn1 (stereo not drawn) [Example 5, 2-(2,4-Difluorophenyl)-1,1-difluoro-1-(5-(4-fluorophenyl)pyridin-2-yl)-3-(1H-tetrazol-1-yl)propan-2-ol]
< 0.5	OC(Cn1cnnn1)(c1ccc(F)cc1F)C(F)(F)c1ccc(-c2cccc(OC(F)(F)F)c2)cn1 (stereo not drawn) [Example 6, 2-(2,4-Difluorophenyl)-1,1-difluoro-3-(1H-tetrazol-1-yl)-1-(5-(3-(trifluoromethoxy)phenyl)pyridin-2-yl)propan-2-ol]
< 0.5	OC(Cn1cnnn1)(c1ccc(F)cc1F)C(F)(F)c1ccc(-c2ccc(OC(F)(F)F)cc2)cn1 (stereo not drawn) [Example 7, 2-(2,4-Difluorophenyl)-1,1-difluoro-3-(1H-tetrazol-1-yl)-1-(5-(4-(trifluoromethoxy)phenyl)pyridin-2-yl) propan-2-ol]
< 0.5	OC(Cn1cnnn1)(c1ccc(F)cc1F)C(F)(F)c1ccc(-c2cccc(Cl)c2)cn1 (stereo not drawn) [Example 8, 1-(5-(3-Chlorophenyl)pyridin-2-yl)-2-(2,4-difluorophenyl)-1,1-difluoro-3-(1H-tetrazol-1-yl)propan-2-ol]
< 0.5	OC(Cn1cnnn1)(c1ccc(F)cc1F)C(F)(F)c1ccc(-c2ccc(Cl)cc2)cn1 (stereo not drawn) [Example 9, 1-(5-(4-Chlorophenyl)pyridin-2-yl)-2-(2,4-difluorophenyl)-1,1-difluoro-3-(1H-tetrazol-1-yl)propan-2-ol]
< 0.5	OC(Cn1cnnn1)(c1ccc(F)cc1F)C(F)(F)c1ccc(-c2cc(F)ccc2F)cn1 (stereo not drawn) [Example 10, 2-(2,4-Difluorophenyl)-1-(5-(2,5-difluorophenyl)pyridin-2-yl)-1,1-difluoro-3-(1H-tetrazol-1-yl)propan-2-ol]
< 0.5	OC(Cn1cncn1)(c1ccc(F)cc1F)C(F)(F)c1ccc(-c2ccc(F)cc2)cn1 (stereo not drawn) [Example 16, 2-(2,4-Difluorophenyl)-1,1-difluoro-1-(5-(4-fluorophenyl)pyridin-2-yl)-3-(1H-1,2,4-triazol-1-yl)propan-2-ol]
< 0.5	OC(Cn1cncn1)(c1ccc(F)cc1F)C(F)(F)c1ccc(-c2ccc(OC(F)(F)F)cc2)cn1 (stereo not drawn) [Example 18, 2-(2,4-Difluorophenyl)-1,1-difluoro-3-(1H-1,2,4-triazol-1-yl)-1-(5-(4-(trifluoromethoxy)phenyl)pyridin-2-yl) propan-2-ol]
> 4	OC(Cn1ncnn1)(c1ccc(F)cc1F)C(F)(F)c1ccc(-c2ccc(OCC(F)(F)F)cc2)cn1 (stereo not drawn) [Example 20, 2-(2,4-Difluorophenyl)-1,1-difluoro-3-(2H-tetrazol-1-yl)-1-(5-(4-(2,2,2-trifluoroethoxy)phenyl)pyridin-2-yl)propan-2-ol]
1.5 to 4 (≈ 3.35 to 8.94 µM)	OC(Cn1ncnn1)(c1ccc(F)cc1F)C(F)(F)c1ccc(-c2cccc(F)c2)cn1 (stereo not drawn) [Example 21]
1.5 to 4 (≈ 3.02 to 8.04 µM)	OC(Cn1ncnn1)(c1ccc(F)cc1F)C(F)(F)c1ccc(-c2ccc(C(F)(F)F)cc2)cn1 (stereo not drawn) [Example 22]
< 0.5	Oc1ccc(-c2ccc(C(F)(F)C(O)(Cn3cnnn3)c3ccc(F)cc3F)nc2)cc1 (stereo not drawn) [Example 23, 4-(6-(2-(2,4-Difluorophenyl)-1,1-difluoro-2-hydroxy-3-(1H-tetrazol-1-yl)propyl)pyridin-3-yl)phenol]
< 0.5	CC(C)c1cccc(-c2ccc(C(F)(F)C(O)(Cn3cnnn3)c3ccc(F)cc3F)nc2)c1 (stereo not drawn) [Example 24, 2-(2,4-Difluorophenyl)-1,1-difluoro-1-(5-(3-isopropylphenyl)pyridin-2-yl)-3-(1H-tetrazol-1-yl)propan-2-ol]
< 0.5	OC(Cn1cnnn1)(c1ccc(F)cc1F)C(F)(F)c1ccc(-c2ccc(F)c(F)c2)cn1 (stereo not drawn) [Example 25, 2-(2,4-Difluorophenyl)-1-(5-(3,4-difluorophenyl)pyridin-2-yl)-1,1-difluoro-3-(1H-tetrazol-1-yl)propan-2-ol]
< 0.5	OC(Cn1cnnn1)(c1ccc(F)cc1F)C(F)(F)c1ccc(-c2cccc(OC(F)F)c2)cn1 (stereo not drawn) [Example 26, 1-(5-(3-(Difluoromethoxy)phenyl)pyridin-2-yl)-2-(2,4-difluorophenyl)-1,1-difluoro-3-(1H-tetrazol-1-yl)propan-2-ol]
< 0.5	OC(Cn1cnnn1)(c1ccc(F)cc1F)C(F)(F)c1ccc(-c2ccc(SC(F)(F)F)cc2)cn1 (stereo not drawn) [Example 27, 2-(2,4-Difluorophenyl)-1,1-difluoro-3-(1H-tetrazol-1-yl)-1-(5-(4-((trifluoromethyl)thio)phenyl)pyridin-2-yl)propan-2-ol]
< 0.5	OC(Cn1cnnn1)(c1ccc(F)cc1F)C(F)(F)c1ccc(-c2ccc(Cl)c(F)c2)cn1 (stereo not drawn) [Example 29, 1-(5-(4-Chloro-3-fluorophenyl)pyridin-2-yl)-2-(2,4-difluorophenyl)-1,1-difluoro-3-(1H-tetrazol-1-yl)propan-2-ol]
< 0.5	Oc1cccc(-c2ccc(C(F)(F)C(O)(Cn3cnnn3)c3ccc(F)cc3F)nc2)c1 (stereo not drawn) [Example 30, 3-(6-(2-(2,4-Difluorophenyl)-1,1-difluoro-2-hydroxy-3-(1H-tetrazol-1-yl)propyl)pyridin-3-yl)phenol]
< 0.5	OC(Cn1cnnn1)(c1ccc(F)cc1F)C(F)(F)c1ccc(-c2cccc(C(F)(F)F)c2)cn1 (stereo not drawn) [Example 31, 2-(2,4-Difluorophenyl)-1,1-difluoro-3-(1H-tetrazol-1-yl)-1-(5-(3-(trifluoromethyl)phenyl)pyridin-2-yl)propan-2-ol]
< 0.5	O=[N+]([O-])c1ccc(-c2ccc(C(F)(F)C(O)(Cn3cnnn3)c3ccc(F)cc3F)nc2)cc1 (stereo not drawn) [Example 32, 2-(2,4-Difluorophenyl)-1,1-difluoro-1-(5-(4-nitrophenyl)pyridin-2-yl)-3-(1H-tetrazol-1-yl)propan-2-ol]
< 0.5	O=C(c1ccc(-c2ccc(C(F)(F)C(O)(Cn3cnnn3)c3ccc(F)cc3F)nc2)cc1)C(F)(F)F (stereo not drawn) [Example 33, 1-(4-(6-(2-(2,4-Difluorophenyl)-1,1-difluoro-2-hydroxy-3-(1H-tetrazol-1-yl)propyl)pyridin-3-yl)phenyl)-2,2,2-trifluoroethanone]
< 0.5	OC(Cn1cnnn1)(c1ccc(Cl)cc1F)C(F)(F)c1ccc(-c2ccc(OC(F)(F)F)cc2)cn1 (stereo not drawn) [Example 34, 2-(4-Chloro-2-fluorophenyl)-1,1-difluoro-3-(1H-tetrazol-1-yl)-1-(5-(4-(trifluoromethoxy)phenyl)pyridin-2-yl)propan-2-ol]
< 0.5	OC(Cn1cnnn1)(c1ccc(F)cc1F)C(F)(F)c1ccc(-c2ccccc2)cn1 (stereo not drawn) [Example 35, 2-(2,4-Difluorophenyl)-1,1-difluoro-1-(5-phenylpyridin-2-yl)-3-(1H-tetrazol-1-yl)propan-2-ol]
< 0.5	OC(Cn1cnnn1)(c1ccc(F)cc1F)C(F)(F)c1ccc(-c2ccc(N3CCOCC3)cc2)cn1 (stereo not drawn) [Example 36, 2-(2,4-Difluorophenyl)-1,1-difluoro-1-(5-(4-morpholinophenyl)pyridin-2-yl)-3-(1H-tetrazol-1-yl)propan-2-ol]
< 0.5	O=C(Nc1ccc(-c2ccc(C(F)(F)C(O)(Cn3cnnn3)c3ccc(F)cc3F)nc2)cc1)C(F)(F)F (stereo not drawn) [Example 37, N-(4-(6-(2-(2,4-Difluorophenyl)-1,1-difluoro-2-hydroxy-3-(1H-tetrazol-1-yl)propyl)pyridin-3-yl)phenyl)-2,2,2-trifluoroacetamide]

SMILES	MIC [µg/mL]
CC(C)(C)Oc1ccc(-c2ccc(C(F)(F)C(O)(Cn3cnnn3)c3ccc(F)cc3F)nc2)cc1 (stereo not drawn) [Example 28, 1-(5-(4-(tert-Butoxy)phenyl)pyridin-2-yl)-2-(2,4-difluorophenyl)-1,1-difluoro-3-(1H-tetrazol-1-yl)propan-2-ol]	< 0.5

Same assay, conditions: Candida albicans, read-out: Candida MIC Rating

SMILES	MIC [µg/mL]
OC(Cn1cnnn1)(c1ccc(F)cc1F)C(F)(F)c1ccc(-c2ccc(OCC(F)(F)C(F)(F)F)cc2)cn1 (stereo not drawn) [Example 12, 2-(2,4-Difluorophenyl)-1,1-difluoro-1-(5-(4-(2,2,3,3,3-pentafluoropropoxy)phenyl)pyridin-2-yl)-3-(1H-tetrazol-1-yl)propan-2-ol]	< 0.5
OC(Cc1cc[nH]n1)(c1ccc(F)cc1F)C(F)(F)c1ccc(-c2ccc(OC(F)(F)F)cc2)cn1 (stereo not drawn) [Example 15, 2-(2,4-Difluorophenyl)-1,1-difluoro-3-(1H-pyrazol-3-yl)-1-(5-(4-(trifluoromethoxy)phenyl)pyridin-2-yl)propan-2-ol]	< 0.5

Same assay, conditions: rating scale

Candida MIC Rating	SMILES
A (≤0.5)	OC(Cn1cnnn1)(c1ccc(F)cc1F)C(F)(F)c1ccc(-c2ccc(OCC(F)(F)F)cc2)cn1 (stereo not drawn) [Example 11, 2-(2,4-Difluorophenyl)-1,1-difluoro-3-(1H-tetrazol-1-yl)-1-(5-(4-(2,2,2-trifluoroethoxy)phenyl)pyridin-2-yl)propan-2-ol]

— patent US10221160B2, “Metalloenzyme inhibitor compounds” (Mycovia Pharmaceuticals, Inc., priority 2012, dated 2019)
